In US20120129843A1, “PYRIDYL-THIAZOLYL INHIBITORS OF PRO-MATRIX METALLOPROTEINASE ACTIVATION” (priority 2010, published 2012):
Counter-ions that a name gives are not always drawn.

Legend:
[1] = target: T1, proMMP9(20-445;ΔFnII) (SEQ ID NO:6) (Homo sapiens, UniProt P14780, DEL216-390); experiment: ThermoFluor binding assay with proMMP9(20-445;ΔFnII)
T1 construct: start methionine (N); made in house; host or cells: E. coli BL21(DE3) RIL
T1 sequence (P14780 with tags, fused parts or gaps DEL216-390): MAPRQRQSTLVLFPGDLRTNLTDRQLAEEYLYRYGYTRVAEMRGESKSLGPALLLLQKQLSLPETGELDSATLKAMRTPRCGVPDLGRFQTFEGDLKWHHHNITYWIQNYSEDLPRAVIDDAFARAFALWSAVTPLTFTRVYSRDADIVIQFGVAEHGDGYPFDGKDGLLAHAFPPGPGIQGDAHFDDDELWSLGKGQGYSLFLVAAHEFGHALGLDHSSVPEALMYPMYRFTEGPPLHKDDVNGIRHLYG
Procedure: (§1) The ThermoFluor® (TF) assay is a 384-well plate-based binding assay that measures thermal stability of proteins (Biomol Screen 2001, 6, 429-40; Biochemistry 2005, 44, 5258-66). The experiments were carried out using instruments available from Johnson & Johnson Pharmaceutical Research & Development, LLC. TF dye used in all experiments was […] (1,8-ANS) (Invitrogen: A-47).
(§2) Compounds were arranged in a pre-dispensed plate (Greiner Bio-one: 781280), wherein compounds were serially diluted in 100% DMSO across 11 columns within a series. Columns 12 and 24 were used as DMSO reference and contained no compound. For multiple compound concentration-response experiments, the compound aliquots ([…]) were robotically predispensed directly into black 384-well polypropylene PCR microplates (Abgene: TF-0384/k) using a Cartesian Hummingbird liquid handler (DigiLab, Holliston, Mass.). Following compound dispense, protein and dye solutions were added to achieve the final assay volume of 3 μL. The assay solutions were overlayed with 1 μL of silicone oil (Fluka, type DC 200: 85411) to prevent evaporation.
(§3) Assay plates were robotically loaded onto a thermostatically controlled PCR-type thermal block and then heated from 40 to 90° C. at a ramp-rate of 1° C./min for all experiments. Fluorescence was measured by continuous illumination with UV light (Hamamatsu LC6) supplied via fiber optics and filtered through a band-pass filter (380-400 nm; >60D cutoff). Fluorescence emission of the entire 384-well plate was detected by measuring light intensity using a CCD camera (Sensys, Roper Scientific) filtered to detect 500±25 nm, resulting in simultaneous and independent readings of all 384 wells. A single image with 20-sec exposure time was collected at each temperature, and the sum of the pixel intensity in a given area of the assay plate was recorded vs temperature and fit to standard equations to yield the Tm (J Biomol Screen 2001, 6, 429-40).
(§4) Thermodynamic parameters necessary for fitting compound binding for each proMMP were estimated by differential scanning calorimetry (DSC) and from ThermoFluor® data. The heat capacity of unfolding for each protein was estimated from the molecular weight and from ThermoFluor® dosing data.
ThermoFluor® with proMMP9(20-445;ΔFnII) (SEQ ID NO:6)
The protein sample preparations included a desalting buffer exchange step via a PD-10 gravity column (GE Healthcare). The desalting buffer exchange was performed prior to diluting the protein to the final assay concentration of 2.8 μM proMMP9(20-445;ΔFnII) (SEQ ID NO:6). The concentration of proMMP9(20-445;ΔFnII) (SEQ ID NO:6) was determined spectrophotometrically based on a calculated extinction coefficient of ε280=39880 M^−1cm^−1, a calculated molecular weight of 28.2 kDa, and calculated pI of 5.5. ThermoFluor® reference conditions were define as follows: 80 μg/mL (2.8 μM) proMMP9(20-445;ΔFnII) (SEQ ID NO:6), 50 μM 1,8-ANS, pH 7.0 Buffer (50 mM HEPES pH 7.0, 100 mM NaCl, 0.001% Tween-20, 2.5 mM MgCl2, 300 μM CaCl2). The thermodynamic parameters for proMMP9(20-445;ΔFnII) (SEQ ID NO:6) are as follows: Tm (° C.)=72 (+/−0.1), ΔUH(Tm) (cal mol^−1)=160000(+/−5000), ΔUS(Tm) (cal mol^−1 K^−1)=434, ΔUCp (cal mol^−1 K^−1)=2400.

[2] = target: T2, full-length proMMP9(1-707) (SEQ ID NO:1), activation by catalytic MMP3 (Homo sapiens, UniProt P14780, R574P); experiment: proMMP9/MMP3 P126 Activation Assay; format: biochemical
T2 construct: made in house; host or cells: HEK293 (proMMP9, secreted); E. coli (MMP3)
T2 sequence (P14780 20-707 R574P): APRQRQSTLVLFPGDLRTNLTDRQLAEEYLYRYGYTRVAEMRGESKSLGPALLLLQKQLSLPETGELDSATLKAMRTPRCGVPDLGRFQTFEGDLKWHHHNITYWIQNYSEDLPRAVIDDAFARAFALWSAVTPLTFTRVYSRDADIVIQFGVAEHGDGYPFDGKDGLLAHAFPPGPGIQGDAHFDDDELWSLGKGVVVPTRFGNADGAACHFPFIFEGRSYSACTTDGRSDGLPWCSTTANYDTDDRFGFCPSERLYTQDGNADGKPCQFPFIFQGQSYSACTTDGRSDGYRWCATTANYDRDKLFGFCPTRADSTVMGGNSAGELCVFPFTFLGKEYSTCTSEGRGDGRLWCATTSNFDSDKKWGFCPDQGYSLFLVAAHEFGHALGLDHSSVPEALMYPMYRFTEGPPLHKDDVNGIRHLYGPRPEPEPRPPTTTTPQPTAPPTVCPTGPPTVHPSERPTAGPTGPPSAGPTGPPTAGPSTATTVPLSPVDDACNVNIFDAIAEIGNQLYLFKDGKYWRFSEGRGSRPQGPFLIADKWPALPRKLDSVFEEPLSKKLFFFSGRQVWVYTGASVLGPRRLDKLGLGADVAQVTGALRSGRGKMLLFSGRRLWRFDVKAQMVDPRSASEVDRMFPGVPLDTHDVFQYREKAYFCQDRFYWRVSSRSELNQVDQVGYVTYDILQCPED
Procedure: proMMP9/MMP3 P126 Activation Assay
The reaction volume was 50 μL. […] Reactivity of residual MMP3 towards P-126 substrate was minimal under these conditions.

[3] = target: T3, proMMP9(67-444;ΔFnII) (SEQ ID NO:5) (Homo sapiens, UniProt P14780, DEL216-390); experiment: ThermoFluor binding assay with proMMP9(67-444;ΔFnII)
T3 construct: start methionine (N); made in house; host or cells: E. coli BL21(DE3) RIL
T3 sequence (P14780 with tags, fused parts or gaps DEL216-390): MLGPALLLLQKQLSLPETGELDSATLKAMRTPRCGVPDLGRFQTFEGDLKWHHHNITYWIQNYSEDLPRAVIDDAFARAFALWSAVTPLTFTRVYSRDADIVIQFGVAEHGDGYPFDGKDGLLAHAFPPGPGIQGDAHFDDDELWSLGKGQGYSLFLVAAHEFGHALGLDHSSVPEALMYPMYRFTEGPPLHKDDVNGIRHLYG
Procedure: as §1, §2, §3, §4
ThermoFluor® with proMMP9(67-444;ΔFnII) (SEQ ID NO:5)
The protein sample preparations had to include a desalting buffer exchange step via a PD-10 gravity column (GE Healthcare). The desalting buffer exchange was performed prior to diluting the protein to the final assay concentration of 3.5 μM proMMP9(67-444;ΔFnII) (SEQ ID NO:5). The concentration of proMMP9(67-444;ΔFnII) (SEQ ID NO:5) was determined spectrophotometrically based on a calculated extinction coefficient of ε280=33900 M^−1cm^−1, a calculated molecular weight of 22.6 kDa, and calculated pI of 5.20. ThermoFluor® reference conditions were defined as follows: 80 μg/mL (3.5 μM) proMMP9(67-444;ΔFnII) (SEQ ID NO:5), 50 μM 1,8-ANS, pH 7.0 Buffer (50 mM HEPES pH 7.0, 100 mM NaCl, 0.001% Tween-20, 2.5 mM MgCl2, 300 μM CaCl2). The thermodynamic parameters for proMMP9(67-444;ΔFnII) (SEQ ID NO:5) are as follows: Tm (° C.)=63 (+/−0.1), ΔUH(Tm) (cal mol^−1)=105000(+/−5000), ΔUS(Tm) (cal mol^−1 K^−1)=[…], ΔUCp (cal mol^−1 K^−1)=2000.

SMILES	Kd [1] [µM]	IC50 [2] [µM]	Kd [3] [µM]
CN1CCN(c2ccc(-c3csc(Nc4cc(S(N)(=O)=O)ccc4OC(F)(F)F)n3)cn2)CC1 [Example 30, 3-{4-[6-(4-Methyl-piperazin-1-yl)-pyridin-3-yl]-thiazol-2-ylamino}-4-trifluoromethoxy-benzenesulfonamide]	0.43	0.75	0.69
CN1CCN(c2ccc(-c3csc(Nc4cc(C(N)=O)ccc4OC(F)(F)F)n3)cn2)CC1 [Example 31, 3-{4-[6-(4-Methyl-piperazin-1-yl)-pyridin-3-yl]-thiazol-2-ylamino}-4-trifluoromethoxy-benzamide]	0.11	0.64	0.61
COc1ccc(C(N)=O)cc1Nc1nc(-c2ccc(N3CCN(C)CC3)nc2)cs1 [Example 32, 4-Methoxy-3-{4-[6-(4-methyl-piperazin-1-yl)-pyridin-3-yl]-thiazol-2-ylamino}-benzamide]	0.36	0.84	2.3
CC(C)Oc1ccc(S(N)(=O)=O)cc1Nc1nc(-c2ccc(N3CCN(C)CC3)nc2)cs1 [Example 33, 4-Isopropoxy-3-{4-[6-(4-methyl-piperazin-1-yl)-pyridin-3-yl]-thiazol-2-ylamino}-benzenesulfonamide.HCl]	0.046	0.14	0.12
NC(=O)c1ccc(OC(F)(F)F)c(Nc2nc(-c3ccnc(Cl)c3)cs2)c1 [Example 34, 3-[4-(2-Chloro-pyridin-4-yl)-thiazol-2-ylamino]-4-trifluoromethoxy-benzamide.TFA]	0.18	1.1	1.5
CC(C)Oc1ccc(S(N)(=O)=O)cc1Nc1nc(-c2ccnc(N3CCN(C)CC3)c2)cs1 [Example 35, 4-Isopropoxy-3-{4-[2-(4-methyl-piperazin-1-yl)-pyridin-4-yl]-thiazol-2-ylamino}-benzenesulfonamide.TFA]	0.19	0.11	0.46
CN1CCN(c2cc(-c3csc(Nc4cc(C(N)=O)ccc4OC(F)(F)F)n3)ccn2)CC1 [Example 36, 3-{4-[2-(4-Methyl-piperazin-1-yl)-pyridin-4-yl]-thiazol-2-ylamino}-4-trifluoromethoxy-benzamide.TFA]	1.3	2.3	7.2
CC(C)Oc1ccc(S(N)(=O)=O)cc1Nc1nc(-c2ccc(N3CCOCC3)nc2)cs1 [Example 37, 4-Isopropoxy-3-[4-(6-morpholin-4-yl-pyridin-3-yl)-thiazol-2-ylamino]-benzenesulfonamide.TFA]	1.3	~2	2.4
CCN1CCN(c2ccc(-c3csc(Nc4cc(S(N)(=O)=O)ccc4OC(C)C)n3)cn2)CC1 [Example 38, 4-Isopropoxy-3-{4-[6-(4-ethyl-piperazin-1-yl)-pyridin-3-yl]-thiazol-2-ylamino}-benzenesulfonamide.TFA]	0.073	0.17	0.38
CC(C)Oc1ccc(S(N)(=O)=O)cc1Nc1nc(-c2ccc(N3CCN(C(C)C)CC3)nc2)cs1 [Example 39, 4-Isopropoxy-3-{4-[6-(4-isopropyl-piperazin-1-yl)-pyridin-3-yl]-thiazol-2-ylamino}-benzenesulfonamide.TFA]	0.07	0.087	0.17
CC(C)Oc1ccc(S(N)(=O)=O)cc1Nc1nc(-c2ccc(N3CCCN(C)CC3)nc2)cs1 [Example 40, 4-Isopropoxy-3-{4-[6-(4-methyl-[1,4]diazepan-1-yl)-pyridin-3-yl]-thiazol-2-ylamino}-benzenesulfonamideamide.TFA]	0.044	0.087	0.33
CC(C)Oc1ccc(S(N)(=O)=O)cc1Nc1nc(-c2ccc(N3CCC(N(C)C)CC3)nc2)cs1 [Example 41, 3-[4-(4-Dimethylamino-3,4,5,6-tetrahydro-2H-[1,2′]bipyridinyl-5′-yl)-thiazol-2-ylamino]-4-isopropoxy-benzenesulfonamide.TFA]	0.051	0.059	0.22
CC(C)Oc1ccc(S(N)(=O)=O)cc1Nc1nc(-c2ccc(NCCN(C)C)nc2)cs1 [Example 42, 3-(4-{6-[(2-Dimethylamino-ethyl)-amino]-pyridin-3-yl}-thiazol-2-ylamino)-4-isopropoxy-benzenesulfonamide.TFA]	0.13	0.15	0.68
CC(C)Oc1ccc(S(N)(=O)=O)cc1Nc1nc(-c2ccc(N(C)CCN(C)C)nc2)cs1 [Example 43, 3-(4-{6-[(2-Dimethylamino-ethyl)-methyl-amino]-pyridin-3-yl}-thiazol-2-ylamino)-4-isopropoxy-benzenesulfonamide.TFA]	0.12	0.2	1.7
CC(C)Oc1ccc(S(N)(=O)=O)cc1Nc1nc(-c2ccc(N3CCNCC3)nc2)cs1 [Example 44, 4-Isopropoxy-3-[4-(6-piperazin-1-yl-pyridin-3-yl)-thiazol-2-ylamino]-benzenesulfonamide.TFA]	0.048	0.073	0.13
CC(C)Oc1ccc(S(N)(=O)=O)cc1Nc1nc(-c2ccc(C(=O)O)nc2)cs1 [Example 45, 5-[2-(2-Isopropoxy-5-sulfamoyl-phenylamino)-thiazol-4-yl]-pyridine-2-carboxylic acid.HCl]	0.47	0.37	3.7
CC(C)Oc1ccc(S(N)(=O)=O)cc1Nc1nc(-c2ccc(C(=O)N3CCN(C)CC3)nc2)cs1 [Example 46, 4-Isopropoxy-3-{4-[6-(4-methyl-piperazine-1-carbonyl)-pyridin-3-yl]-thiazol-2-ylamino}-benzenesulfonamide.TFA]	1.3	1.3	6.6
